Laboratory results reported in patent publication US20230293504A1, “TARGETING SUCNR1 TO REDUCE NEUROINFLAMMATION” (New York University, priority 2022, published 2023).

Legend:
SUCNR1 [1] = target: T1, SUCNR1 (Mus musculus, UniProt Q99MT6); assay: Ligature plus F. nucleatum induced periodontitis in mice, topical 7a gel formulation (FIG. 11); type: in vivo
T1 construct: endogenous in cells; host or cells: live mice; C57/B6 is stated for the periodontitis model, and no strain is stated for the LPS model
T1 sequence (Q99MT6 1-317): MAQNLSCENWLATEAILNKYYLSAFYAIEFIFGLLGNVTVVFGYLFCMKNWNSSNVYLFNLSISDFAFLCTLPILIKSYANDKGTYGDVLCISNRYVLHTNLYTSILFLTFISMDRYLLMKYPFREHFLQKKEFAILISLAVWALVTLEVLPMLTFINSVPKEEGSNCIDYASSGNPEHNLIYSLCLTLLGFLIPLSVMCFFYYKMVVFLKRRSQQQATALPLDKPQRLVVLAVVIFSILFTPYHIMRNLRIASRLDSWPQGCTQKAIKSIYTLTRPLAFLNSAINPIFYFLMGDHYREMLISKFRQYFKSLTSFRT
Experimental: FIG. 11. Targeting SUCNR1 suppressed periodontitis and neuroinflammation. A. Study design. Periodontitis was induced in 14-week-old mice with a 6-0 silk ligature (Roboz Surgical Instrument Co., MD, USA) around the maxillary right side second molar. The ligature were kept in place for 5 days before removal. Sterile swabs soaked in 100 μl of 2.5×10^9/ml F. nucleatum in PBS and inoculated into mice around the ligature affected gingival tissues for 30 seconds. Inoculations were performed twice a week for four weeks. Mice were randomly assigned to receive 3 μl vehicle or 7a gel formulation every other day by topical application. B. Representative μCT images; C. The distance between CEJ to alveolar bone crest. D. IL-1β mRNA levels in the gingivae around the ligature site. E. Serum IL-1β levels. *p<0.05, ** p<0.01, *** p<0.001).
A novel mechanism connecting chronic peripheral inflammation and neuroinflammation. […] Inflammation was induced in 14-week-old C57/B6 mice by placing a ligature on the 2nd maxillary molar for 5-days plus twice/week inoculations of a key periodontal pathogen Fusobacteria nucleatum (Fn) for 4-weeks (FIG. 1A). […] This local inflammation was accompanied with the induction of neuroinflammation evidenced by the activation of microglia (FIG. 1D) and increased IL1β levels in hippocampus, cortex and cerebellum (FIG. 1E-G).
Six in situ gel formulations (ISGs) were produced by varying polymer concentration, changing the hydrophobicity of the solvent system, and use of different plasticizers (such as PEG200). All these ISGs were analyzed by FT-IR/ATR and HPLC assay for drug-polymer compatibility. In vitro drug release experiments were performed to assess the profile of sustained release with controlled initial burst release. One gel formulation was chosen to treat periodontitis animals in-vivo at 1 μg/10 g body weight three times/week (FIG. 11).
To determine if succinate receptor 1 inhibitors could reduce inflammation, succinate receptor 1 inhibitors were administered to mice. In this study (FIG. 11), mice with periodontal disease were used because of the resulting neuroinflammation from the periodontal disease. Topical application of POC7a gel formulation was administered at 1 μg/10 g body weight three times/week.

SUCNR1 [2] = target: T1, SUCNR1; assay: LPS-induced neuroinflammation in mice, oral gavage of 7a (FIG. 16); type: in vivo; conditions: LPS-treated mice
Experimental: FIG. 16. […] A. Experimental design and treatment regime. 12-week-old male mice were randomly divided into 3 groups to receive inflammation induction (LPS) and treatment (7a) at indicated timepoints. PBS was used as the control solution to LPS and 20% DMSO in PBS (vehicle) was used as the control solution to 7a. The RNA samples were collected in TRIZol and extracted after perfusion. TNFα and IL1β mRNA levels were measured by Realtime PCR using specific primers and normalized to β-actin. B. Cerebellum, C. Hippocampus and D. Cortex. (* p<0.05. ** p<0.005, *** p<0.0005, **** p<0.0001 One-way ANOVA with post-hoc Tukey test).
Targeting SUCNR1 with topical 7a application reduced periodontitis as well as the associated neuroinflammation in mice. […] Thus, mice were pretreated 7a or vehicle through oral gavage 30 minutes before giving LPS intraperitoneally to induce neuroinflammation. The administration of 7a at 8 hours and 16 hours was repeated after the first dose. The mouse blood samples were collected through cardiac puncture at 24 hours (FIG. 16A). Immediately afterward, PBS was used to perfuse the mice to minimize the impact of blood cells to the gene expression of the brain tissues. The brain tissue samples were collected and the cerebellum, hippocampus, and cortex were micro-dissected and processed for RNA extraction and gene expression analysis.
The 7a solution was prepared as follows. 100 mM 7a stock solution was prepared using DMSO. Then the 7a stock solution was further diluted with PBS to become 20 mM 7a working solution and used for oral gavage to mice. DMSO in PBS (at 20% v/v) was used as vehicle. Based on the animals' body weight, 25 gram mice will receive 100 μL gavage volume) 7a working solution or vehicle. The treatment dose of 7a is 80 μmol/kg.

Fusobacterium nucleatum = test system: Fusobacterium nucleatum
Experimental: FIG. 5. Fusobacterium nucleatum growth and virulence gene expression. A. F. nucleatum growth in media supplemented with indicated succinate concentrations shown as optical density measures over time (n=3, SEM). Different letters indicate statistically different from one another (ANOVA, p<0.05 by post-hoc Tukey's). B Relative expressions of virulence genes of F. nuleactum in 100 uM of succinate as determine by RT-PCR. (mean±SEM. ** p<0.01, * p<0.05).

[3] = mice; succinate IP daily (4 mM/kg) for 4 weeks vs PBS
Experimental: FIG. 3. […] Mice received daily intraperitoneal (IP) injection with PBS or Succinate (4 mM/kg) for 4 weeks before sample collection. […] B. Alpha Diversity measured by the Observed number of ASVs, and Phylogenetic diversity index for oral swab samples. C. […] D. Network plot generated in Cytoscape 3.8.2. The small gray dots represent ASVs, the white circles represent WT samples, the yellow triangles represent WT_Suc samples. Edges represent the interaction of sample and ASV are colored based on sample type.

[4] = mice with periodontitis, topical gel
[5] = 7a oral gavage 80 μmol/kg, 3 doses, mRNA at 24 hours

SMILES | IL1β levels in cerebellum tissues (SUCNR1 [1]; [4]) | IL1β levels in hippocampal tissues (SUCNR1 [1]; [4]) | systemic IL1β levels in the serum (SUCNR1 [1]; [4]) | local IL1β levels in the gingiva (SUCNR1 [1]; mice with periodontitis, topical gel, mRNA around the ligature site) | periodontitis (μCT, distance between CEJ to alveolar bone crest) (SUCNR1 [1]; mice, ligature + F. nucleatum, oral topical gel formulation every other day) | IL1β expression in the cerebellum (SUCNR1 [2]; [5]) | IL1β expression in the hippocampus (SUCNR1 [2]; [5]) | TNFα expression in the cerebellum (SUCNR1 [2]; [5]) | TNFα expression in the cortex (SUCNR1 [2]; [5]) | TNFα expression in the hippocampus (SUCNR1 [2]; [5]) | neuroinflammation (SUCNR1 [2]; oral gavage) | expression of virulence factors (Hemin receptor, Hemolysin, Hemolysin-related protein, Lys R Family transcriptional regulator) (Fusobacterium nucleatum; 100 uM of succinate, RT-PCR) | F. nucleatum growth (optical density) (Fusobacterium nucleatum; media supplemented with succinate) | dysbiosis in the oral microbiota (alpha and beta diversity) [3] | serum IL-1β levels [3]
CNC(=O)Cc1ccc(-c2ccc3cccnc3n2)cc1 [7a] | significant reduction | significant reduction | reduced | reduced | inhibited periodontitis | less induction | less induction | less induction | reduced | less induction | reduced neuroinflammation | – | – | – | –
O=C(O)CCC(=O)O [succinate] | – | – | – | – | – | – | – | – | – | – | – | elevated | elevated | increased | increased
